Measured values as given in ChEMBL document CHEMBL5029192, “Novel Macrocyclic LRRK2 Inhibitors for Treating Parkinson's Disease” (ACS Med Chem Lett, 2022).

Target: Leucine-rich repeat serine/threonine-protein kinase 2 (Homo sapiens, UniProt Q5S007)
Assay: Inhibition of recombinant human LRRK2 using LRRKtide peptide and ATP as substrates incubated for 1 hrs by ADP-glo luminescent assay

Sequence of Leucine-rich repeat serine/threonine-protein kinase 2 (Q5S007 whole entry): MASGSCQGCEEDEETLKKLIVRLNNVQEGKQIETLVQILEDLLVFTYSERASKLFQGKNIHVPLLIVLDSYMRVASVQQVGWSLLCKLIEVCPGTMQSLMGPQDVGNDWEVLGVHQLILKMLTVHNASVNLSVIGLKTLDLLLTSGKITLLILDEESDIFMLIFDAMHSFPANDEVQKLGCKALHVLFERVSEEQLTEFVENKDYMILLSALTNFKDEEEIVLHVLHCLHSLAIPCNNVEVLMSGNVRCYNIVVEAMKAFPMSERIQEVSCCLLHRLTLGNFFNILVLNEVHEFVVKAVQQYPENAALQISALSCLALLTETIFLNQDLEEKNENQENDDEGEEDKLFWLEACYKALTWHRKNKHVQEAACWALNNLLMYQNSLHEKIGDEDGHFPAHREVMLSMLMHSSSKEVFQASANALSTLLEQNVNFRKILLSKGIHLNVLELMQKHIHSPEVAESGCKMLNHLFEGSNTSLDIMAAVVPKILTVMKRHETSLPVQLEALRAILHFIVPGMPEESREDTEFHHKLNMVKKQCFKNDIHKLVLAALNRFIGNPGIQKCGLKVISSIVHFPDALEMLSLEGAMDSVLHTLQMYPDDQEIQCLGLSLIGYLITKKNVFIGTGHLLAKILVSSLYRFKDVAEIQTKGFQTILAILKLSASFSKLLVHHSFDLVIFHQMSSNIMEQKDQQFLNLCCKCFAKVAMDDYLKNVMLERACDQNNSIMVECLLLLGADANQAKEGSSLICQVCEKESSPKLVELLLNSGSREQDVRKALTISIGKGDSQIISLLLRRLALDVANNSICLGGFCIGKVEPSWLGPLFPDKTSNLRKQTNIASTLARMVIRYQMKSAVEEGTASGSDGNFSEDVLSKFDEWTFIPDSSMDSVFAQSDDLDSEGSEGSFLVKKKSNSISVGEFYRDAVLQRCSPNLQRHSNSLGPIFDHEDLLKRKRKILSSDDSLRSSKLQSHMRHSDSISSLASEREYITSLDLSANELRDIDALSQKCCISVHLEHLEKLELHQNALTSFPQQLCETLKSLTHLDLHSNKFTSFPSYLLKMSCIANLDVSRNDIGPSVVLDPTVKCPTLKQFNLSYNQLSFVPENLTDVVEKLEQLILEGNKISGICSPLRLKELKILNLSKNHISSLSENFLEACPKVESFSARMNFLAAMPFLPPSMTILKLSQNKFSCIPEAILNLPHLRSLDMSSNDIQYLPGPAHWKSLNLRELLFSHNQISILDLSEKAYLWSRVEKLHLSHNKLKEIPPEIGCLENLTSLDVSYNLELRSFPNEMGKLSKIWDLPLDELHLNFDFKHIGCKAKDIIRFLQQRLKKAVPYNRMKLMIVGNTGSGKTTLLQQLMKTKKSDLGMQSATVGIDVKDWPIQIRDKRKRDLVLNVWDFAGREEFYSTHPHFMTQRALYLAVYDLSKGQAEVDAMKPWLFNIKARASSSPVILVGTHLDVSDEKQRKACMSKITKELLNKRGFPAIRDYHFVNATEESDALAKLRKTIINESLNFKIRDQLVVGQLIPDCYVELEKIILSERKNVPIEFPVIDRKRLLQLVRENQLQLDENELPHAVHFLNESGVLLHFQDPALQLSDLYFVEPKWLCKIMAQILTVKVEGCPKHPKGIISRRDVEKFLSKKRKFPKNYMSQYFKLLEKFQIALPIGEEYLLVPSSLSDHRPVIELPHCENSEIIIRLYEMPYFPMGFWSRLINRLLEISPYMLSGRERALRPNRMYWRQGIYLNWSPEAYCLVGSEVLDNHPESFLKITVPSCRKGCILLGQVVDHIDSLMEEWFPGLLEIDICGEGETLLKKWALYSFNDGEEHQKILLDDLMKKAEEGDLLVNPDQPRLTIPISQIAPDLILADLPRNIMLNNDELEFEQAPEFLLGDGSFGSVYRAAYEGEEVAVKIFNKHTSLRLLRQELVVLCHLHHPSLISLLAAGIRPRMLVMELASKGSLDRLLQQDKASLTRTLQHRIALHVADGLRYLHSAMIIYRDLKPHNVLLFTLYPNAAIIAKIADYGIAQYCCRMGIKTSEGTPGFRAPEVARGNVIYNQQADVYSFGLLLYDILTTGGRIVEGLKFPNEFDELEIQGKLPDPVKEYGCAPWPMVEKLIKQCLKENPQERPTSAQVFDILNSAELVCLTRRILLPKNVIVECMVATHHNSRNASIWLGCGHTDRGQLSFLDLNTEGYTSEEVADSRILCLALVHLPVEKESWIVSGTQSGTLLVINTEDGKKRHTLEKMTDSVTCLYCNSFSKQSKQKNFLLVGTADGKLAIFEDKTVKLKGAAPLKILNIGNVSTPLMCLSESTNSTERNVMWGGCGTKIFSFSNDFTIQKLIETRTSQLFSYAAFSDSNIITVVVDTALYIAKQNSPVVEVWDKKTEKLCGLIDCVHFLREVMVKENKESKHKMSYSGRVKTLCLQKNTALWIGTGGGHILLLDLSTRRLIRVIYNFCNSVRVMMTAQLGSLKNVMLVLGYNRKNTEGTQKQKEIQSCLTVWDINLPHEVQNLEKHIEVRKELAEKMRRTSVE

Structure (SMILES) | IC50
O=C1NCCCOc2ccc3[nH]nc(c3c2)-c2cc(cc(N3CCC4(COC4)C3)c2)CO1 | < 10 nM
O=C1NCCCOc2ccc3[nH]nc(c3c2)-c2csc(n2)CCO1 | < 10 nM
O=C1NCCCOc2ccc3[nH]nc(c3c2)-c2cc(cc(N3CCC(N4CCCC4)CC3)c2)CO1 | < 10 nM

Now from value to molecule:

IC50 | Structure (SMILES)
< 10 nM | O=C1NCCCOc2ccc3[nH]nc(c3c2)-c2cc(cc(N3CCN(C4COC4)CC3)c2)CO1
< 10 nM | O=C1NCCCOc2ccc3[nH]nc(c3c2)-c2cc(cc(N3CCC(N4CCOCC4)CC3)c2)CO1
< 10 nM | O=C1NCCCOc2ccc3[nH]nc(c3c2)-c2ccc(C3CC3)c(c2)CO1
